Assay [1] has as its target T1, rat central A1 adenosinergic receptors (Rattus norvegicus, UniProt P25099).
T1 construct: After the animal has been sacrificed by decapitation, the brain is quickly removed and washed in cold isotonic solution; from tissue; host or cells: rat brain, membrane preparation from the two hemispheres
T1 sequence (P25099 1-326): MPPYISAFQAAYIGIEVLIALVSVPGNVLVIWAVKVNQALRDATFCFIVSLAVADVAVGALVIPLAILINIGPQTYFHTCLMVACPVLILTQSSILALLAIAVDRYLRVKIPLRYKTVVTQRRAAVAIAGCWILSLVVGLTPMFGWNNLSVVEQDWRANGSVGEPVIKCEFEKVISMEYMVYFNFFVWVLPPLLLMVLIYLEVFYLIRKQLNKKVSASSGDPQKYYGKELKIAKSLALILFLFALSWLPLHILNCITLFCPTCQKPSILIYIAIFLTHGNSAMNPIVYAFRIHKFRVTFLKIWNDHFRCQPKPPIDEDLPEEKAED
Briefly: Binding to adenosine A1 receptors ([3H] PIA displacement). The following applies: [3H] PIA 2.5 nM, n=3; for inhibition at 10 µM: read-out: % displacement of the labeled ligand, A1, 1E-5M; for inhibition at 0.1 µM: read-out: % displacement of the labeled ligand, A1, 1E-7M. On the procedure: (§1) The affinity of the products of the Examples for the rat central A1 and A2 adenosinergic receptors is determined by the competitive technique using a radioactive ligand specifically bound either to the A1 receptors ([^3 H] PIA) or to the A2 receptors ([^3 H] NECA).
After the animal has been sacrificed by decapitation, the brain is quickly removed and washed in cold isotonic solution. The two hemispheres are separated and weighed and each of them is introduced into a polyallomer tube containing 25 volumes of cold homogenization buffer. Homogenization is effected using an Ultra-Turrax for 30 seconds (3 times 10 seconds with 10-second intervals, 70% of the maximum speed). The ground material obtained is centrifuged at 1000 g (≈3000 rpm) for 10 minutes at 4° C.
The supernatant is centrifuged again at 48,000 g (≈20,000 rpm) for 20 minutes at 4° C.
When this step is complete, the residue is taken up with 4 volumes of homogenization buffer, resuspended using a Vortex and homogenized with the Ultra-Turrax. Adenosine deaminase is then added at a rate of 1 U/ml, i.e. 1 μl/ml of homogenate, using a 10 μl Hamilton syringe.
After this treatment, the homogenate is shaken for 30 minutes at room temperature and then centrifuged at […] (≈20,000 rpm) for 30 minutes at 4° C.
The residue obtained is resuspended in 10 volumes of homogenization buffer and passed through the Ultra-Turrax for 20 seconds (2 times 10 seconds with a 10-second interval, 70% of the maximum speed).
The homogenate prepared in this way is used for the competitive tests. It is kept at 4° C. if the studies take place the same day, or stored at -20° C. in the form of 10 ml aliquots.
After the homogenate has been thawed at room temperature, it is passed through a Potter mill (6 manual to-and-fro movements, speed 6), diluted to 2/5 in incubation buffer and placed in a water bath thermostated at 4° C., with shaking, until the end of the experiment.
50 μl of [^3 H] PIA at 100 nM, i.e. 2.5 nM in the final reaction medium allowing for the 1/40 dilution, and 50 μl of the product of the Example at the concentrations considered ([…] and 10^-7 M) are introduced into the reaction tubes. The reaction is initiated by the addition of 1 ml of homogenate and 900 μl of incubation buffer. The procedure is identical for all the […] studied.
The tubes are shaken and incubated in a water bath at 20° C. for 30 minutes. When the incubation is complete, the contents of the tubes are filtered on Whatman GF/B paper. Each tube is washed twice with 2 ml of rinsing buffer and then the filters themselves are rinsed with 3 ml of this same buffer.
The filters are then transferred to counting flasks and 10 ml of liquid scintillator (Ready Solv HP/b, Beckman) are added.
After they have been shaken, the flasks are stored in a refrigerator overnight and the radio-activity is then determined in a liquid scintillation counter.
3 tests are performed for each concentration studied. The non-specific binding of the [^3 H] PIA is assessed by measuring the amount of radioactivity retained on the filter in the presence of 10^-5 M phenylisopropyladenosine (PIA). The value of the non-specific binding is systematically subtracted from that of the tests.
(§2) The results are expressed for each product in the form of the percentage displacement (n=3) of the labeled radioligand at concentrations of 10^-5 M and 10^-7 M.

Assay [2] deals with T2, rat central A2 adenosinergic receptors (Rattus norvegicus, UniProt P30543).
T2 construct: the striatum is removed from each of them (Bruns et al., 1986); from tissue; host or cells: rat striatum, homogenate (membrane preparation)
T2 sequence (P30543 whole entry): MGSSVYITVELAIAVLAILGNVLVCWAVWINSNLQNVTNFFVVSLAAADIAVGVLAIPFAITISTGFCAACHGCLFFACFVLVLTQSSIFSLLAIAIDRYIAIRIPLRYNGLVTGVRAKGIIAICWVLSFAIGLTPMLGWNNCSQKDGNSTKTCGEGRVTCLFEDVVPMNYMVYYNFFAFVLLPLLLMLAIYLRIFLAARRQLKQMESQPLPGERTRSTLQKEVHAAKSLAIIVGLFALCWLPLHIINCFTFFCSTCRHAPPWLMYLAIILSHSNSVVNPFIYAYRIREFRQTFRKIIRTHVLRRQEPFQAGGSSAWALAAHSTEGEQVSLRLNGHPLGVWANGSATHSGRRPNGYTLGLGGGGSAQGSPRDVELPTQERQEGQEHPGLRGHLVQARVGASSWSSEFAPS
Put plainly: Binding to adenosine A2 receptors ([3H] NECA displacement). The following applies: [3H] NECA 4 nM, n=3; for inhibition at 10 µM: read-out: % displacement of the labeled ligand, A2, 1E-5M; for inhibition at 0.1 µM: read-out: % displacement of the labeled ligand, A2, 1E-7M. On the procedure: as §1
Method of studying the A2 receptors Membrane preparation
After decapitation of the animal, the brain is quickly removed and washed in cold isotonic solution. The two hemispheres are separated and the striatum is removed from each of them (Bruns et al., 1986), weighed and introduced into a polyallomer tube containing 10 volumes of cold homogenization buffer. The tissue is homogenized with an Ultra-Turrax for 30 seconds (3 times 10 seconds with 10-second intervals, 70% of the maximum speed). The ground material is centrifuged at 50,000 g (≈20,500 rpm) for 10 minutes at 4° C.
The residue obtained is resuspended in 10 volumes of homogenization buffer using a Vortex and homogenized with the Ultra-Turrax (5 to 10 seconds, 70% of the maximum speed).
Adenosine deaminase is then added at a rate of 1 U/ml, i.e. 1 μl/ml of homogenate, using a 10 μl Hamilton syringe. The homogenate treated in this way is shaken at room temperature for 30 minutes.
When the incubation is complete, the homogenate is centrifuged at 50,000 g (≈20,500 rpm) for 10 minutes at 4° C.
The residue is taken up with 5 volumes of cold homogenization buffer and passed through the Ultra-Turrax (2 times 10 seconds with a 10-second interval, 70% of the maximum speed) and the homogenate prepared in this way is finally frozen at -70° C. Competitive test
After the homogenate has been thawed at room temperature, 15 volumes of incubation buffer are added. The homogenate is shaken on a Vortex, passed through a Potter mill (6 to-and-fro movements, speed 6), diluted to 1/10 in incubation buffer and finally placed in a water bath thermostated at 4° C., with shaking, until the end of the experiment.
50 μl of [^3 H] NECA at 160 nM, i.e. 4 nM in the final reaction medium allowing for the 1/40 dilution, and 50 μl of the product of the Example at the concentrations considered (10^-5 M and 10^-7 M) are introduced into the reaction tubes. The reaction is initiated by the addition of 1 ml of homogenate and 900 μl of incubation buffer. The procedure is similar for all the compounds studied.
The tubes are shaken and incubated in a water bath at 25° C. for 60 minutes. When the incubation is complete, the contents of the tubes are filtered on Whatman GF/B paper. Each tube is washed twice with 2 ml of rinsing buffer and then the filters themselves are rinsed with 3 ml of this same buffer before being transferred to counting flasks.
10 ml of liquid scintillator (Ready Solv HP/b, Beckman) are added to all the flasks. These are shaken and stored in a refrigerator overnight. The radioactivity is determined in a liquid scintillation counter.
3 tests are performed for each concentration studied. The non-specific binding of the [^3 H] NECA is determined by measuring the amount of radioactivity retained on the filter in the presence of 5 μM N-ethylcarboxamidoadenosine (NECA). The value of the non-specific binding is systematically subtracted from that of the tests.
as §2

Assay [3] can be described thus: Phenylbenzoquinone test (analgesic activity). Format: in vivo. As to conditions: Mus musculus, 1 h; mice; oral, one hour before phenylbenzoquinone i.p.; 5 minutes observation; read-out: Phenylbenzoquinone test 50% inhibitory dose. On the procedure: 2. Phenylbenzoquinone test
The intraperitoneal injection of phenylbenzoquinone causes twisting and stretching movements in mice. Analgesics prevent or reduce this syndrome, which can be considered as the exteriorization of diffuse abdominal pain.
A 0.02% solution of phenylbenzoquinone in water is administered in a volume of 1 ml/100 g.
The products of the Examples are administered orally one hour before the injection of phenylbenzoquinone.
The stretching and twisting movements are counted for each mouse over an observation period of 5 minutes.

With `O=C(NC1CC1)[C@H]1O[C@@H](n2cnc3c(NCCc4cn(Cc5ccc(Cl)cc5)c5ccccc45)ncnc32)[C@H](O)[C@@H]1O` [Example 61, β-D-Ribofuranuronamido-1-[6-[[2-[1-(4-chlorobenzyl)indol-3-yl]ethyl]amino]-9H-purin-9-yl]-N-cyclopropyl-1-deoxy], the values for the inhibition at 10 µM in assay [1] (1E-5M) and in assay [2] (1E-5M) were 98% and 91%, respectively. In addition, the inhibition at 0.1 µM in assay [1] (1E-7M) is 47%; in assay [2] (1E-7M), 30%. Besides, the ED50 in assay [3] was 0.9 mg/kg.

As to `COCCn1cc(CCNc2ncnc3c2ncn3[C@@H]2O[C@H](C(=O)NC3CC3)[C@@H](O)[C@H]2O)c2ccccc21` [Example 63, β-D-Ribofuranuronamido-N-cyclopropyl-1-deoxy-1-[6-[[2-[1-(2-methoxyethyl)indol-3-yl]ethyl]amino]-9H-purin-9-yl]], the inhibition at 10 µM in assay [1] (1E-5M) stood at 98%; in assay [2] (1E-5M), 90%. In addition, the inhibition at 0.1 µM in assay [1] (1E-7M) turned out to be 61%; in assay [2] (1E-7M) it was 19%. Further, in assay [3], the ED50 amounted to 10 mg/kg.

As to `O=C(NC1CC1)[C@H]1O[C@@H](n2cnc3c(NCCc4cn(C5CCCC5)c5ccccc45)ncnc32)[C@H](O)[C@@H]1O` [Example 64, β-D-Ribofuranuronamido-1-[6-[[2-[1-cyclopentylindol-3-yl]ethyl]amino]-9H-purin-9-yl]-N-cyclopropyl-1-deoxy], the inhibition at 10 µM in assay [1] (1E-5M) worked out at 96%; in assay [2] (1E-5M) it was 90%. Also, the inhibition at 0.1 µM in assay [1] (1E-7M) came to 21%; in assay [2] (1E-7M), 28%. Besides, the ED50 in assay [3] was 0.3 mg/kg.

Take `CC(C)n1cc(CCNc2ncnc3c2ncn3[C@@H]2O[C@H](C(=O)NC3CC3)[C@@H](O)[C@H]2O)c2ccccc21` [Example 65, β-D-Ribofuranuronamido-N-cyclopropyl-1-deoxy-1-[6-[[2-[1-isopropylindol-3-yl]-ethyl]amino]-9H-purin-9-yl]]: the inhibition at 10 µM in assay [1] (1E-5M) is 87%; in assay [2] (1E-5M), 91%. The inhibition at 0.1 µM stood at 4% in assay [1] (1E-7M) and 14% in assay [2] (1E-7M). In addition, the ED50 in assay [3] turned out to be 0.3 mg/kg.

As to `Cc1ccc(Cn2cc(CCNc3ncnc4c3ncn4[C@@H]3O[C@H](C(=O)NC4CC4)[C@@H](O)[C@H]3O)c3ccccc32)cc1` [Example 66, β-D-Ribofuranuronamido-N-cyclopropyl-1-deoxy-1-[6-[[2-[1-(4-methylbenzyl)indol-3-yl]ethyl]amino]-9H-purin-9-yl]], the inhibition at 10 µM in assay [1] (1E-5M) turned out to be 97%; in assay [2] (1E-5M), 89%. Besides, the results for the inhibition at 0.1 µM in assay [1] (1E-7M) and in assay [2] (1E-7M) were 37% and 21%, respectively. Moreover, the ED50 in assay [3] was determined as 3 mg/kg.

Turning to `O=C(NC1CC1)[C@H]1O[C@@H](n2cnc3c(NCCc4cn(CCN5CCOCC5)c5ccccc45)ncnc32)[C@H](O)[C@@H]1O` [Example 69, β-D-Ribofuranuronamido-N-cyclopropyl-1-deoxy-1-[6-[[2-[1-(2-N-morpholinoethyl)indol-3-yl]ethyl]amino]-9H-purin-9-yl]], the inhibition at 10 µM in assay [1] (1E-5M) is 93%; in assay [2] (1E-5M) it was 90%. The inhibition at 0.1 µM in assay [1] (1E-7M) came to 63%; in assay [2] (1E-7M) it was 12%.

Consider `CN(C)CCn1cc(CCNc2ncnc3c2ncn3[C@@H]2O[C@H](C(=O)NC3CC3)[C@@H](O)[C@H]2O)c2ccccc21` [Example 70, β-D-Ribofuranuronamido-N-cyclopropyl-1-deoxy-1-[6-[[2-[1-(2-N,N-dimethylaminoethyl)indol-3-yl]ethyl]amino]-9H-purin-9-yl]], for which the inhibition at 10 µM in assay [1] (1E-5M) stood at 100%; in assay [2] (1E-5M) it was 94%. For the same compound, the figures for the inhibition at 0.1 µM in assay [1] (1E-7M) and in assay [2] (1E-7M) were 91% and 44%, respectively.

In the case of `O=C(NC1CC1)[C@H]1O[C@@H](n2cnc3c(NCCc4cn(CCN5CCCCC5)c5ccccc45)ncnc32)[C@H](O)[C@@H]1O` [Example 71 (base), β-D-Ribofuranuronamido-N-cyclopropyl-1-deoxy-1-[6-[[2-[1-(2-N-piperidinoethyl)indol-3-yl]ethyl]amino]-9H-purin-9-yl]], the “% displacement of the labeled ligand, A1, 1E-5M” value in assay [1] (1E-5M, 10 µM) came out at 99%. Also, in assay [1] (1E-7M, 0.1 µM), the “% displacement of the labeled ligand, A1, 1E-7M” value came to 94%. Moreover, in assay [2] (1E-5M, 10 µM), the “% displacement of the labeled ligand, A2, 1E-5M” value came to 92%. The “% displacement of the labeled ligand, A2, 1E-7M” value in assay [2] (1E-7M, 0.1 µM) is reported as 46%.

(Values after patent US5480983A, “Adenosine derivatives, preparation methods and pharmaceutical compositions containing them” (Laboratoires UPSA, priority 1992, dated 1996).)
